Measurements published in patent US7022681B2, “Partial and full agonists of A1 adenosine receptors” (CV Therapeutics, Inc., priority 2002, dated 2006).

Legend:
seizures induced by DMCM = details: experimental models of epilepsy; cited from earlier work
A1 receptor = A1 receptor (Cavia porcellus, UniProt P47745); details: chronic administration for 7 days, guinea pigs; cited from earlier work
awake rats [1] = assay: Antilipolytic properties: NEFA concentration in awake rats; type: in vivo, rat; details: oral administration
Text: • Animals. Male Sprague-Dawley rats (380–420 g) were purchased from Simonsen Laboratories (Gilroy, Calif.). All animals received humane care according to the guidelines set forth in The Principles of Laboratory Animal Care formulated by the National Society for Medical Research and the Guide for the Care and Use of Laboratory Animals prepared by the Institute of Laboratory Animal Resources and published by the National Institute of Health (NIH Publication 86-23, revised 1996). • Isolation of Rat Epididymal Adipocytes. Adipocytes were isolated from the epididymal fat pads of rats as described previously (Rodbell, 1964). Briefly, rats were anesthetized using methoxyfluorane and killed by exsanguination. Epididymal fat tissue was removed and placed into a modified Krebs (KRH) solution containing NaCl (100 mM), KCl (4.7 mM), CaCl2 (2.5 mM), NaHCO3 (3.6 mM), MgSO4 (1.19 mM), KH2PO4 (1.18 mM), dextrose (5 mM), pyruvic acid (5 mM), ascorbic acid (1 mM), and HEPES (5 mM), pH 7.4. Visible blood vessels were dissected and excised, and the adipose tissue was minced. Minced tissue was digested with 25 ml of fresh KRH solution containing type I collagenase (1 mg/ml), fatty-acid free BSA [1% (wt/vol)] and nicotinic acid (2_M, to inhibit lipolysis) for 40 to 60 minutes at 37° C. with continuous gentle shaking. The cell suspension was filtered through a nylon-mesh (210_m) to remove undigested tissue fragments. The cell filtrate was washed three times using KRH solution containing 1% fatty acid-free BSA at 37° C. The final adipocyte suspension was either diluted in fresh KRH solution with 1% fatty acid-free BSA for use in cAMP experiments, or used to prepare membranes for radioligand binding assays. • cAMP Assays in Isolated Rat Adipocytes. Aliquots (100 μl, 45,000–90,000 cells) of the freshly prepared adipocyte cell suspension were placed into wells of 24-well cell culture plates containing 0.4 ml of KRH solution containing fatty acid-free BSA (1%), ascorbic acid (1 mM), rolipram (10 μM), cilostamide (1 μM), adenosine deaminase (2 U/ml), and appropriate A1 adenosine receptor agonist(s). An aliquot of 0.5 ml of KRH solution containing 60 nM isoproterenol was added to each well, and incubations proceeded for 4 min in an orbital shaker bath maintained at 37° C. Assays were terminated by the addition of 200 μl of 300 mM HCl to each well to lyse the cells. The concentration of cAMP in the cell lysate was determined using colorimetric direct cAMP kits (Assay Designs, Inc., Ann Arbor, Mich.). Adipocyte Membrane Preparation and Competition Binding • Assays. Freshly isolated adipocytes were added to a chilled solution containing sucrose (0.25 M), EDTA (1 mM), and Tris-HCl (10 mM, pH 7.4) and homogenized with 10 strokes using a motordriven tissue grinder. The homogenate was cooled on ice and the fat layer was discarded. The homogenate was then centrifuged at 500 g for 10 min at 4° C. The supernatant under the fat layer was removed, resuspended in fresh buffer, and homogenized a second time with six strokes using the tissue grinder. Cell membranes were collected by centrifugation of the homogenate at 15,000 g for 15 min. The final membrane pellet was resuspended in a solution containing sucrose (0.25 M), phenylmethylsulfonyl fluoride (0.1 mM), leupeptin (5 μg/ml), aprotinin ([…]), adenosine deaminase (2 U/ml), and Tris-HCl (10 mM) buffer, pH 7.4. The membrane suspension was frozen and stored in liquid nitrogen. For competition binding assays, membrane suspensions were thawed and incubated for 2 hours at room temperature in Tris-HCl (50 mM) buffer containing ADA (1 U/ml), guanosine 5-(imido)triphosphate ([…]), and [3H]CPX (1–3nM) and progressively higher concentrations of the competing agent. At the end of incubation, free radioligand was separated from membrane-bound radioligand by filtration through GF/C glass fiber filters (Whatman, Maidstone, UK) using a tissue harvester (Brandel, Inc., Gaithersburg, Md.). Radioactivity was quantified by liquid scintillation counting. […]

awake rats [2] = assay: Heart rate in awake rats (telemetry); type: in vivo, rat; details: dose levels of 1 mg/kg, 2.5 mg/kg, and 5 mg/kg
Description: Heart rate was measured from rats chronically instrumented with telemetry transmitters. For transmitter implantation, a midline laparotomy was performed on anesthetized rats and a transmitter for ECG recording was sutured to the abdominal wall. The two electrocardiographic leads were tunneled through the wall, passed subcutaneously (one to the left shoulder, the other to the right thigh), and secured in place with sutures. Heart rates of awake rats were measured using a Dataquest ART Gold System (Data Sciences International, St. Paul, Minn.). Cardiac electrical activity was recorded for 10-s periods and used to calculate heart rate in beats per minute. After recording of a baseline heart rate, either vehicle (0.9% DMSO in saline, 0.5 ml) or a compound of Formula I was injected into the intraperitoneal cavity of each rat, and heart rate was monitored at intervals for an additional 3 hours.
The effects of a compound of Formula I on heart rate and serum NEFA reduction concentration were determined in separate groups of rats to avoid the effects of animal handling and blood sampling on heart rate. Three days before an experiment, a catheter ([…] outer diameter) was implanted in the left common carotid artery of each rat using aseptic conditions and sterile technique. […] Serum NEFA concentration was determined using an enzymatic colorimetric assay kit (Wako Chemicals, Richmond, Va.).

A1 receptor, sequence (P47745 whole entry): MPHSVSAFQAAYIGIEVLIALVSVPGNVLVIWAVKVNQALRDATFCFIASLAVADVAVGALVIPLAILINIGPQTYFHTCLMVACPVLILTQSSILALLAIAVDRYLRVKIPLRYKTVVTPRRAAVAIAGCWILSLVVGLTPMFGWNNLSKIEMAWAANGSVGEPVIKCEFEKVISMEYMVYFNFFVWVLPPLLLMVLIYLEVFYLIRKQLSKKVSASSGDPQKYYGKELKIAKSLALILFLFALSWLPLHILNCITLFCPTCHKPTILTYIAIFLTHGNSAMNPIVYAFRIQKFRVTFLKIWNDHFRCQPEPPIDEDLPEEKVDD

## Cc1ccccc1CNc1ncnc2c1ncn2[C@@H]1O[C@H](CO)[C@@H](O)[C@H]1O [metrifudil]
Seizures induced by DMCM
  anticonvulsant activity against seizures induced by DMCM: potent anticonvulsant

## C[C@H](Cc1ccccc1)Nc1ncnc2c1ncn2[C@@H]1O[C@H](CO)[C@@H](O)[C@H]1O [R-PIA, R-N6-phenylisopropyladenosine]
A1 receptor
  desensitization in terms of the dromotropic response: desensitization of the A1 receptor

## O[C@@H]1[C@H](O)[C@@H](C#Cc2ccccc2F)O[C@H]1n1cnc2c(NC3CCCC3)ncnc21 [(4S,2R,3R,5R)-2-[6-(cyclopentylamino)purin-9-yl]-5-{2-[2-fluorophenyl]-ethynyl}oxolane-3,4-diol]
Awake rats [1]; 1 mg/Kg
  initial reduction of non-esterified free fatty acid (NEFA): 40%
  time in which plasma levels of NEFA returned to normal: 2 h
  time the NEFA reduction was maintained: 1 h
Awake rats [1]; 2.5 mg/Kg
  initial reduction of non-esterified free fatty acid (NEFA): 60%
  time in which plasma levels of NEFA returned to normal: 4 h
  time the NEFA reduction was maintained: 1.5 h
Awake rats [2]
  effect on heart rate: no effect on heart rate was observed
